From US11230547B2, “Purine inhibitors of human phosphatidylinositol 3-kinase delta” (Merck Sharp & Dohme Corp., priority 2017, dated 2022)

Tests used:
[1] = molecular target: PI3Kdelta (Homo sapiens (Human), UniProt O00329); experiment: HTRF PI3K biochemical assay, delta isoform; settings: 0.3 nM enzyme, 100 uM ATP, 5 uM PIP2, form screened per table
Summary of the method: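 PI3Kδ at 0.3 nM preincubated 15 min with compound, then reacted 1 h at room temperature with 100 uM ATP and 5 uM PIP2. PIP3 product detected by competitive HTRF displacing biotin-PIP3 from GST-GRP1 PH domain, so signal falls with activity. 10-point 3-fold dose response.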

[2] = molecular target: PI3Kalpha (Homo sapiens (Human), UniProt P42336); experiment: HTRF PI3K biochemical assay, alpha isoform (selectivity versus delta); settings: relative ratio PI3K-alpha IC50 value / PI3K-delta IC50 value
Summary of the method: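 Recombinant human PI3Kα (0.5 nM) preincubated 15 min with compound, then reacted 1 h at room temperature with 100 uM ATP and 5 uM PIP2. PIP3 formation detected by HTRF competition with biotin-PIP3 for GST-GRP1 PH domain (Eu/APC, 665/620 nm); product lowers signal.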

Sequence of PI3Kdelta (O00329 whole entry, the tested form may be a part, canonical isoform): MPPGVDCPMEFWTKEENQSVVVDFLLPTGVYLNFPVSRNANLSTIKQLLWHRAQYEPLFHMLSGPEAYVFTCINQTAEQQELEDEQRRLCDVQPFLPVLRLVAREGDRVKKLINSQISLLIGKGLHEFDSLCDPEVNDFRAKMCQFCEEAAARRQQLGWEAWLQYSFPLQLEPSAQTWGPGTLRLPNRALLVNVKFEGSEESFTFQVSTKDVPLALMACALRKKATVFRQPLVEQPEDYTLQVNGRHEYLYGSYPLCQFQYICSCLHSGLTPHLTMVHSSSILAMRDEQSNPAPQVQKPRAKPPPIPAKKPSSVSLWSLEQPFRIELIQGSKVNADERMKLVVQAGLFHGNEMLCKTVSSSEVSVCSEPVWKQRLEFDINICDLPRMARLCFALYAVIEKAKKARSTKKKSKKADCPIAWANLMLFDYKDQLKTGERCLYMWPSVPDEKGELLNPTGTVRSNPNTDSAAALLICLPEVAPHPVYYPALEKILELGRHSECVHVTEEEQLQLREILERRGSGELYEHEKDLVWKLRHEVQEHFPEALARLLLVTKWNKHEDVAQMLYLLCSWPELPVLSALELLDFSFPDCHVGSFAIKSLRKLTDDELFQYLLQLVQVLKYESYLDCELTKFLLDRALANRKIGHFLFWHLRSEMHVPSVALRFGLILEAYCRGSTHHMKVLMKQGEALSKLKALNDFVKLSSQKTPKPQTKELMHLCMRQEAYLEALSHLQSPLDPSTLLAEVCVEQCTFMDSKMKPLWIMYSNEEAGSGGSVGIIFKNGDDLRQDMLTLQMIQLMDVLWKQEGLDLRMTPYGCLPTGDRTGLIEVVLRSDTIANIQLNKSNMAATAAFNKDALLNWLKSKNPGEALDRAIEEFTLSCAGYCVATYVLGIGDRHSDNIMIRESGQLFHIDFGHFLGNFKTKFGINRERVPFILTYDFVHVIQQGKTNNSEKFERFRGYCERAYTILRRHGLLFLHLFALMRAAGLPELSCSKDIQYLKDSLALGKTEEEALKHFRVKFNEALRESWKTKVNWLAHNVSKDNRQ
Sequence of PI3Kdelta (P27986 whole entry partner, the tested form may be a part, canonical isoform): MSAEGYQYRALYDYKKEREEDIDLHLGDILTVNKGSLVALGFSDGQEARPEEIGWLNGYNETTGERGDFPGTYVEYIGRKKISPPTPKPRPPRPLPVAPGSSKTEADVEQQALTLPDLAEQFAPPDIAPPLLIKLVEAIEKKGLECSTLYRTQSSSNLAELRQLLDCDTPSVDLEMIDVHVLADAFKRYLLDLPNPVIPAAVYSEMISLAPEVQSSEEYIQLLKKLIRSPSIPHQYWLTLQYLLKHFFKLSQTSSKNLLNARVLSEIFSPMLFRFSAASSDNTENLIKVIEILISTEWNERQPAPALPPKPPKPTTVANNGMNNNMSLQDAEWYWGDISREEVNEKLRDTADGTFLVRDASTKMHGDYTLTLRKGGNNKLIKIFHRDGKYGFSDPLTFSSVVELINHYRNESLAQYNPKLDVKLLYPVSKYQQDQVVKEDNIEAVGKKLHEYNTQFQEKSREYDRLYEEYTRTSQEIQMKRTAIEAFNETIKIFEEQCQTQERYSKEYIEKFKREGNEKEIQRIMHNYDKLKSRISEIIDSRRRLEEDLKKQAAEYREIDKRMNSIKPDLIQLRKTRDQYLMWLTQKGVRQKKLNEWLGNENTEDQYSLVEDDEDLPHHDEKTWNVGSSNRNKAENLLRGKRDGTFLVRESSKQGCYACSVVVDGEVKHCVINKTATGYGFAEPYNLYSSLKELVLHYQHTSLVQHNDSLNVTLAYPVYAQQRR
Sequence of PI3Kalpha (P42336 whole entry, the tested form may be a part, canonical isoform): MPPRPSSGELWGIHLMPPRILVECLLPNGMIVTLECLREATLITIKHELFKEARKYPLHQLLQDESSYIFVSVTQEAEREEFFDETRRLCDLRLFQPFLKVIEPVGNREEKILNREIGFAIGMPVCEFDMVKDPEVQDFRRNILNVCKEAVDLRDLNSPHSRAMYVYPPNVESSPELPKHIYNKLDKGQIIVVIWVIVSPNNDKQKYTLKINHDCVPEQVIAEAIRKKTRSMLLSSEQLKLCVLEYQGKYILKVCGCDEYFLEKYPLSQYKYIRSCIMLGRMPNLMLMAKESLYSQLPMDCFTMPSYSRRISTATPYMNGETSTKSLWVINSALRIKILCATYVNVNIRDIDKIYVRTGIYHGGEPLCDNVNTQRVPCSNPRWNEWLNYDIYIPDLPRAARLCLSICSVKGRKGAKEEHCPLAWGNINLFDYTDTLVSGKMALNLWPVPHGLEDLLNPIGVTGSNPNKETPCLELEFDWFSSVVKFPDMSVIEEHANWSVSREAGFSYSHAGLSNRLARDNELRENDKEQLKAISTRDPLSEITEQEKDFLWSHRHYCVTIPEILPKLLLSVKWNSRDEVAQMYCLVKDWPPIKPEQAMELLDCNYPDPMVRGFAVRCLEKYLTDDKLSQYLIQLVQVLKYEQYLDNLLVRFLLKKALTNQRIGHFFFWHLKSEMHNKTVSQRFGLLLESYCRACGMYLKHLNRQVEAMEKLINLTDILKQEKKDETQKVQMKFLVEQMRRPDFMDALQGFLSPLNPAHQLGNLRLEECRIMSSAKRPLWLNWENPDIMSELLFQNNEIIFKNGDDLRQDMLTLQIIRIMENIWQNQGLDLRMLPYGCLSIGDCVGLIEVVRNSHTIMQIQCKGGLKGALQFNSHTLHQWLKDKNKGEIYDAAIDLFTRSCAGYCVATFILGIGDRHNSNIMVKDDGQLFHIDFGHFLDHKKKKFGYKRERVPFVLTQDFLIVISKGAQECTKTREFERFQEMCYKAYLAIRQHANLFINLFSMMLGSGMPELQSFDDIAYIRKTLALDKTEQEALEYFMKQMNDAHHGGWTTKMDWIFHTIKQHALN
Sequence of PI3Kalpha (P27986 whole entry partner, the tested form may be a part, canonical isoform): as the sequence (P27986 whole entry partner, the tested form may be a part, canonical isoform) above

C[C@@H]1CN(c2nc(-c3cnn(C)c3)ncc2C#N)CCN1C(=O)C1(C)CC1 [Compound 4-4, 4-{(3R)-3-methyl-4-[(1-methylcyclopropyl)carbonyl]piperazin-1-yl}-2-(1-methyl-1H-pyrazol-4-yl)pyrimidine-5-carbonitrile]
IC50 [1]: 1100 nM
Selectivity versus PI3Kalpha [2]: >10
